The numbers were not newly measured in article PMC10925453, “Selective Bias Virtual Screening for Discovery of Promising Antimalarial Candidates targeting Plasmodium N-Myristoyltransferase” (Research Square, 2024), which cites them from elsewhere.

Each structure is given as a SMILES string.

Data set [1] concerns Plasmodium NMT. The arrangement: method as in earlier work. As to conditions: ligand of the PDB structure, activity against Plasmodium NMT; ref PDB.
For data set [2], the system named is human isoform 1. As to conditions: no reference given.

Consider `Cc1nn(C)c(C)c1NS(=O)(=O)c1c(Cl)cc(-c2ccnc(N3CCNCC3)c2)cc1Cl` [2YND], for which the Ki in data set [1] is 0.032 µM.
On to `Cc1nn(C)c(C)c1Cc1nnc(-c2sc3ccccc3c2OC2CCNCC2)o1` [2YNE, 2-(3-piperidin-4-yloxy-1-benzothiophen-2-yl)-5-[(1,3,5-trimethylpyrazol-4-yl)methyl]-1,3,4-oxadiazole], for which the IC50 in data set [2] was 0.06 ± 0.003 µM. In addition, the Ki in data set [1] is 0.0027 µM.

As usually defined, the Ki is the dissociation constant of the complex between target and ligand, obtained from inhibition or displacement. By IC50 is commonly meant the midpoint of a concentration-inhibition curve.
